Source: patent US20170296505A1, “LONG-CHAIN CARBOXYCHROMANOLS AND ANALOGS FOR USE AS ANTI-INFLAMMATORY AGENTS” (Purdue Research Foundation, priority 2008, published 2017)

How the values were obtained:
ovine COX-1 = molecular target: T1, ovine COX-1 (Ovis aries, UniProt P05979); test: COX-1 activity assay using purified enzyme; type: biochemical
T1 construct: purchased Cayman Chemicals (Ann Arbor, Mich.)
T1 sequence (P05979 25-600): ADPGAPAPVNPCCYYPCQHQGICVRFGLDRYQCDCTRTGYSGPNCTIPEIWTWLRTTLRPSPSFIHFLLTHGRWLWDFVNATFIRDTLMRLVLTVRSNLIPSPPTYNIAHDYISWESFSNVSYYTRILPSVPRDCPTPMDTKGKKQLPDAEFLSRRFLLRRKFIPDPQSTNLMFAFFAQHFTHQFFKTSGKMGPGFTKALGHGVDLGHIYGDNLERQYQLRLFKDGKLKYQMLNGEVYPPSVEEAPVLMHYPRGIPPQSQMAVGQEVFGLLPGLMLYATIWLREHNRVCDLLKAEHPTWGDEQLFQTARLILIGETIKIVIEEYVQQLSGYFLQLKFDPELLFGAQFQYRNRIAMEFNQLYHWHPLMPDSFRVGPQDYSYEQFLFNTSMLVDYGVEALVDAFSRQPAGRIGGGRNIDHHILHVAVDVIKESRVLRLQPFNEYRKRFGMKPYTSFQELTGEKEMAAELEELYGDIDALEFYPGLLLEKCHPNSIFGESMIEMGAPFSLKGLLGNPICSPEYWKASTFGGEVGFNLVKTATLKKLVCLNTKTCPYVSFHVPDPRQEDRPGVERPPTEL
Protocol: (§1) COX-1 and COX -2 activity assay using purified enzymes—The enzymatic reactions were performed in 0.1M Tris (pH 8.0), in the presence of 5 mM EDTA, 2 mM phenol, and 1 μM heme. […] Enzymatic reactions were initiated by addition of AA at a final concentration of 5 μM for 2 min. The reaction was stopped by addition of 0.1 M HCl. Stannous chloride in 0.1 M HCl was then added to reduce PGG2 and PGH2 to PGF2a. After addition of 0.5 vol of […] NaCl, prostaglandins formed in the reaction were extracted using 2.5 vol of ethyl acetate and the organic layer was completely dried under N2. PGF2a, and PGE2 were quantified using ELISA assays from Cayman Chemicals.

5-LOX = molecular target: T2, 5-LOX (Homo sapiens, UniProt P09917); test: 5-LOX activity in HL-60 cells differentiated neutrophils; type: cell-based; design: endogenous in cells; host or cells: HL-60 cells differentiated to neutrophils
T2 sequence (P09917 1-674): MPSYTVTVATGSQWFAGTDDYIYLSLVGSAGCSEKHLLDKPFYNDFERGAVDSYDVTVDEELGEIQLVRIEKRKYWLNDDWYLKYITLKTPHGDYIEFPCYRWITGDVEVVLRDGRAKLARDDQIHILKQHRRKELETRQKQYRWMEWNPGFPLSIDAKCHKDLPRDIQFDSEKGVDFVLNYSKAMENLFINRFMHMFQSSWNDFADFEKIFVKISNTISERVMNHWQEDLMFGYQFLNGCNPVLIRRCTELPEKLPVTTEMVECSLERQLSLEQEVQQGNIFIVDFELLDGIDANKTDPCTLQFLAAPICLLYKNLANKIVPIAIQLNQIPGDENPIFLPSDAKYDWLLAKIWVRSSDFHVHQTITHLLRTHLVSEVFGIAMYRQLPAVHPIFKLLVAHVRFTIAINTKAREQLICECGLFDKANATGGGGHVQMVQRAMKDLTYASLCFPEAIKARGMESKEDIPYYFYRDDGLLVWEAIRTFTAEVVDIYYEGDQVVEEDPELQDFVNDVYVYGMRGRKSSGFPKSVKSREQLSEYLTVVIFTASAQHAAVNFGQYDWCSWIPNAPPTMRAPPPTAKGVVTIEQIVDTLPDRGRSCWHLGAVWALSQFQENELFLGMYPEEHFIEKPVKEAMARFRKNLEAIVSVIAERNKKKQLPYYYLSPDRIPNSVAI

[1] = after γ-T supplementation; cited from earlier work
COX-2 [2] = molecular target: T3, COX-2 (Homo sapiens, UniProt P35354); test: COX-2 activity assay using purified enzyme; type: biochemical; design: purchased Cayman Chemicals (Ann Arbor, Mich.)
T3 sequence (P35354 18-604): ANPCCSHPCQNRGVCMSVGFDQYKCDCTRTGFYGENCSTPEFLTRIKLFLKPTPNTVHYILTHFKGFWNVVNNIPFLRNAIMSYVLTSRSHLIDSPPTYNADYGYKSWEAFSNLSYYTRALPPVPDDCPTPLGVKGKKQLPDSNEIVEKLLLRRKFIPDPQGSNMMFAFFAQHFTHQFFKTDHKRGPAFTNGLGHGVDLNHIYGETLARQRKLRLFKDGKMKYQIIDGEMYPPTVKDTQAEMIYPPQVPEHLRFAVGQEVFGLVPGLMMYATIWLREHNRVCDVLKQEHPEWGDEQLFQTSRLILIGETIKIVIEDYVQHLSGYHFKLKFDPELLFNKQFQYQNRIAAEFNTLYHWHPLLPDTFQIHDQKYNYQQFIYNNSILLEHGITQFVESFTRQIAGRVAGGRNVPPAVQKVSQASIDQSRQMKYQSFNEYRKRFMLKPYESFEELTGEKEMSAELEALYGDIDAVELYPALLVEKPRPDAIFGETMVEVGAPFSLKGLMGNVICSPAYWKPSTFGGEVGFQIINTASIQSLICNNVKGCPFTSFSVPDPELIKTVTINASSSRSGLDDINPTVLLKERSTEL
Protocol: as §1

COX-2 [3] = molecular target: T3, COX-2; test: COX-2 activity in intact cells; type: cell-based; design: A549 cells were pre-treated with 0.5-1 ng/mL of IL-1β- for 6 hours to induce COX-2 expression; endogenous in cells
Protocol: COX-2 activity in intact cells—A549 cells were pre-treated with 0.5-1 ng/mL of IL-1β- for 6 hours to induce COX-2 expression, then incubated with fresh medium containing vitamin E farms, metabolite-containing conditioned medium or control medium for 30 min. […] The enzyme reaction was initiated by addition of 5 μM AA for 5 min, and medium was collected and immediately frozen to −20 C. PGE2 generated was measured as an index of COX-2 activity using an EIA assay from Cayman Chemicals.

[4] = Metabolite levels after γ-T supplementation in rats; type: in vivo; details: preliminary data
Source text: One important implication of our current findings is that different bioactivity among vitamin E forms may be rooted in their distinct metabolism. To this end, long-chain carboxychromanols may contribute to in vivo anti-inflammatory effect of γ-T (3-2). […] Himmelfard et al. reported that γ-T enriched but not a-T-enriched mixed tocopherol inhibited C-reactive protein and IL-6 in kidney-dialysis patients 36).

[5] = system: human normal CCD841CoN (CCD) colon epithelial cells; test: Normal colon epithelial cell viability (MTT); type: cell-based; details: vs. cancer cells
[6] = system: IL-1beta-stimulated PGE2 formation in A549 cells; test: IL-1beta-stimulated PGE2 formation with or without sesamin (Table 4); type: cell-based, human; details: IL-1beta 2 ng/ml, 8 h; 13′-COOH 2.5 uM, sesamin 1 uM
Protocol: Briefly, A549 cells were stimulated with IL-1beta (2 ng/ml) in the presence of DMSO (ctrl, 0.1%), control with sesamin (1 uM), 13′-COOH (structure 1) at 2.5 uM, 13′-COOH with sesamin (1 uM). Basal control was cells incubated with medium without IL-1beta. Eight hours later, media were collected and PGE2 was measured by ELISA.

[7] = system: sulfation of carboxychromanols; test: Sulfation of carboxychromanols; details: preliminary data
[8] = system: colon HCT116 cancer cells; test: HCT116 cell growth / viability (MTT); type: cell-based, human
Protocol: FIG. 9. MTT assay data were obtained after HCT116 colon cancer cells were incubated with curcumin (Cur, 6 μM), δTE-13′-COOH (13′, 10 μM) or their combination for 72 h. *P<0.05 and ***P<0.01 indicate statistically difference between the treatments and vehicle control.
(§2) The relative cell viability as a percentage of the control was determined for control and for each concentration.
This observation supports the idea that the combination of curcumin with 13′-COOHs may offer better anticancer efficacy than either agent alone.

HT29 colon cancer cells = test: HT-29 cell viability (MTT); type: cell-based, human
Protocol: FIG. 8. […] Relative cell viability was measured by MTT assay after cells were treated with STE-13′ at indicated concentrations and times compared with DMSO controls. […] The data are mean±SD from at least three independent experiments. *p <0.05 and **p<0.01 indicate a significant difference between treated and DMSO-control cells
Besides HT29 colon cancer cells, we also observed similar anticancer effects of δTE-13-COOH on HCT116 colon cancer cells (FIG. 4C) and MCF7 breast cancer cells (FIG. 4A).

[9] = system: HCT116 colon cancer cells; test: Apoptosis by flow cytometry; type: cell-based, human; details: 20 μM, 24 hours
DSS-induced colitis = DSS-induced colitis model; type: in vivo, mice
[10] = system: human breast MCF-7 cancer cells; test: MCF-7 cell growth (MTT); type: cell-based; details: 5, 10, 20 μM, over 60 hours
Protocol: as §2

[11] = system: AOM/DSS-induced colon inflammation and tumorigenesis; test: AOM/DSS-induced colon cancer model; type: in vivo, Balb/c mice; details: 0.025% diet
Protocol: AOM is a carcinogen and DSS administered in drinking water causes colon inflammation that promotes colon tumorigenesis. Therefore, the AOM-DSS model represents inflammation (colitis)-promoted colon cancer. In FIG. 5A, the experimental design is shown. At day 0, AOM is administered to the Balb/c mice.

COX-2 [12] = molecular target: T3, COX-2; test: COX-2 inhibition with purified human enzyme (Table 3); type: biochemical; design: A549 cells were pre-treated with 0.5-1 ng/mL of IL-1β- for 6 hours to induce COX-2 expression; endogenous in cells; details: mean±SEM
Source text: Free radical biology & medicine 95, 190-199. Results are mean±SEM based on four or more independent experiments.

[13] = at maximum concentration of 20 μM
[14] = purified enzyme, Not inhibit: 9′ at 20 μM, acetaminophen at 250 μM
[15] = intact cells, COX-2 pre-induced by IL-1β, 5 μM AA, read-out: IC50 COX-2 in A549 cells
[16] = Table 2, read-out: IC50 COX-2 activity in intact cells

## Cc1cc(O)cc2c1OC(C)(CCCC(C)CCCC(C)C(=O)O)CC2 (centres unmarked) [9′]
Ovine COX-1; [13]
  inhibition of COX-1: did not inhibit
Ovine COX-1; [14]
  IC50 COX-1: Not inhibit*
5-LOX
  estimated IC50 of 5-LOX activity: low microM
[1]
  detection in the plasma and liver: not
COX-2 [2]; [13]
  inhibition of COX-2: did not inhibit
COX-2 [2]; [14]
  IC50 COX-2: Not inhibit*
COX-2 [3]; [15]
  IC50: 7 ± 2 µM

## Cc1cc(O)cc2c1OC(C)(CCCC(C)CCCC(C)CCCC(C)C(=O)O)CC2 (centres unmarked) [13′, 13-(6-hydroxy-2,8-dimethylchroman-2-yl)-2,6,10-trimethyltridecanoic acid]
Ovine COX-1; [14]
  IC50: 5 ± 2 µM
[4]
  amount found in feces: > 100 nmol/g
[1]
  detection in the plasma and liver: significant amounts
[5]
  sensitivity of normal cells (anti-proliferation, 24-h incubation): much less sensitive
COX-2 [2]; [14]
  IC50: 4 ± 2 µM
COX-2 [3]; [16]
  IC50: 4 ± 2 µM
COX-2 [3]; [15]
  IC50: 6 ± 2 µM
[6]
  PGE2: 3.21 ± 0.9 ng/mL

## COc1cc(/C=C/C(=O)CC(=O)/C=C/c2ccc(O)c(OC)c2)ccc1O [curcumin, reference compound]
[7]
  sulfation of carboxychromanols: inhibits sulfation
[8]; Homo sapiens, HCT-116, curcumin 6 μM, δTE-13′-COOH 10 μM or their combination, 72 h, read-out: reduction of colon cancer cell viability
  cytotoxicity at 6 µM: 35%

## C/C(=C\CC/C(C)=C/CCC1(C)CCc2cc(O)cc(C)c2O1)CC/C=C(\C)C(=O)O (centres unmarked) [δTE-13′, (2E,6E,10E)-13-(6-hydroxy-2,8-dimethylchroman-2-yl)-2,6,10-trimethyltrideca-2,6,10-trienoic acid]
HT29 colon cancer cells
  cancer cell growth (MTT): dose- and time-dependent manner
[9]
  cells in early stage apoptosis: 7.92%
  cells in late stage apoptosis: 22.9%
DSS-induced colitis; compared to the DSS-treated control
  colitis score: significantly decreased colitis score
DSS-induced colitis; in diet
  DSS-induced diarrhea and fecal bleeding: significantly mitigated
[10]
  cancer cell growth (MTT): dose-dependently inhibits
[11]
  body weight: no effect
  food intake: no effect
[11]; P<0.01
  decrease of total tumor multiplicity: 34%
[11]; P<0.05
  decrease of large polyps: 58%
[11]; second cycle of DSS
  DSS-induced inflammation (fecal bleeding): significantly attenuated
COX-2 [12]
  IC50: 9.8 ± 2 µM
[8]; 5, 10, 20 μM, over 60 hours
  cancer cell growth (MTT): dose-dependently inhibits
[8]; curcumin 6 μM, δTE-13′-COOH 10 μM or their combination, 72 h
  reduction of colon cancer cell viability: 11-12%
COX-2 [3]; [16]
  IC50: 4 ± 1 µM
